This data set is described as follows: Pharmacokinetics study, Mn^2+ in whole blood by ICP-MS. The note with it: SD rats, caudal vein 0.1 mmol/kg, non-compartment model. The data set is classed as in vivo. On the procedure:
Totally 8 SD rats, 3 female rats and 5 male rats, weighed 220 to 240 g, were anesthetized by intraperitoneal injection of 3% pentobarbital sodium (50 mg/kg) and fixed in supine position, followed by removing neck hair and disinfecting routinely for later use.
Catheterization of left carotid artery comprises steps as follows: making a 20 mm longitudinal incision from the 3 mm left side of the median cervical line (the line from the sternum to the mandible) and 7 mm above the sternum; dissecting the skin to expose the subcutaneous tissue, and performing a blunt layer-by-layer dissection until the carotid artery was visualized; separating […] from its accompanied veins by blunt dissection; ligating distal portion and proximal portion of the heart respectively, wherein the distance between the nodes was 2.5-3.5 cm; inserting an indwelling needle into the artery near the node at the distal portion of the heart and fixing with a hemostatic clip, taking the needle out and releasing the node at the proximal portion of the heart; and injecting heparin lithium (150 μg/kg) to perform systemic heparinization in body.
Caudal vein was rapidly injected (<5s) with KBR0826 solution (0.05 mmol/mL) at a dose of 0.1 mmol/kg. Before injection and within 1 min, 2 min, 3 min, 5 min, 8 min, 13 min, 20 min, 30 min, and 50 min after the injection, 0.1 mL of carotid blood was respectively collected and placed in a 0.5 mL EP tube and stored at −20° C.
ICP-MS was configured with a power of 1150 W, a flow rate of argon for atomization gas of 0.95 L·min^−1, a flow rate of argon for auxiliary gas of 1.2 L·min^−1, a flow rate of argon for plasma gas of 18 L·min^−1, pump speed of 20 r·min^−1, an analytic mode being standard mode, repetition sampling in triple.
A set of standard solution was prepared with standard reagents (PerkinElmer, […] (1000 ppb): Ag, Al, As, Cs, Cu, Sr, Se, Mn, etc.) at different concentrations, i.e., at 1.0 ppb, 10 ppb, 50 ppb, 100 ppb, 200 ppb and 1000 ppb, to establish a standard curve (as shown in FIG. 3), and R^2 for the linear equation was >0.9999.
20 μL of sample (whole blood) was collected and diluted to 6 to 10 mL with 1% HNO3, such that the concentration of Mn^2+ ranged from 1 ppb to 100 ppb; sample IDs were generated and then the samples were measured, and Mn^2+ concentrations of the sample solutions were calculated according to the response intensity and the standard curve.
PKSolver 2.0 was used for calculating relevant pharmacokinetic parameters.

“And” between values parts separate entries of the source, which are not always exact repeats. Identical values can stand only once.

The term Vss denotes the apparent volume that relates the amount in the body to the concentration in plasma or blood. Read a high Vss as extensive tissue distribution.

In the case of `O=C([O-])CN(CP(=O)([O-])O)C1CCCCC1N(CC(=O)[O-])CP(=O)([O-])O.[Mn+2].[Na+].[Na+]` (centres unmarked) [KBR0826], the AUC0-inf was 734.55 ± 333.06 mg·min/L, the AUC0-t turned out to be 712.59 ± 325.70 mg·min/L, the AUMC0-inf is 8419.63 ± 9547.34 mg/L · min^2 and the C0 is 616.61 ± 568.85 µg/mL. Further, the MRT0-inf was 11.26 ± 8.93 min; the V is 0.38 ± 0.45 L/kg; the Vss was found to be 0.17 ± 0.30 L/kg; the “t1/2 (plasma half-life)” value is 23 min and 22.87 ± 13.04 min.

(Values after patent US20230098403A1, “MAGNETIC RESONANCE IMAGING CONTRAST AGENT, PREPARATION METHOD AND USE THEREOF” (GUANGZHOU PINGLAN MEDICAL TECHNOLOGY CO., LTD., priority 2020, published 2023).)
